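Cultured in 96-well plates, cells were exposed to test compound for 48 hours across five concentrations. GI50: concentration for 50% inhibition of growth.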 The source made the active and inactive calls. Cut-off read from the data, not from the text of the source: active = GI50 up to about 1.1 µM and inactive = higher.
Assays:
Experiment in all cases: growth of human tumour cells (NCI), 48 h
[1] = tested on: SW-620
[2] = tested on: A549
[3] = tested on: SK-MEL-5
[4] = tested on: SNB-75
[5] = tested on: OVCAR-4
[6] = tested on: IGROV-1
[7] = tested on: OVCAR-5
[8] = tested on: COLO 205
[9] = tested on: DMS-273
[10] = tested on: UACC-257
[11] = tested on: HCT-15
[12] = tested on: NCI-H23
[13] = tested on: Malme-3M
[14] = tested on: HCC 2998
[15] = tested on: OVCAR-8
[16] = tested on: NCI-H226
[17] = tested on: LOX IMVI
[18] = tested on: MDA-MB-435
[19] = tested on: DU-145
[20] = tested on: MDA-N

Row | Compound | GI50 [1] | GI50 [2] | GI50 [3] | GI50 [4] | GI50 [5] | GI50 [6] | GI50 [7] | GI50 [8] | GI50 [9] | GI50 [10] | GI50 [11] [µM] | GI50 [12] | GI50 [13] | GI50 [14] | GI50 [15] | GI50 [16] | GI50 [17] | GI50 [18] | GI50 [19] | GI50 [20]
1 | NC1=NC(Cn2nc(-c3ccccc3)c3ccccc3c2=O)=NNC(=O)N1 | > 100 µM (inactive) | > 100 µM (inactive) | > 100 µM (inactive) | > 100 µM (inactive) | > 100 µM (inactive) | > 100 µM (inactive) | > 100 µM (inactive) | > 100 µM (inactive) | > 100 µM (inactive) | > 100 µM (inactive) | > 100 | > 100 µM (inactive) | > 100 µM (inactive) | > 100 µM (inactive) | > 100 µM (inactive) | > 100 µM (inactive) | – | – | – | –
2 | c1csc(C[N+]23CN4CN(CN(C4)C2)C3)c1 | 15.7 µM (inactive) | 30 µM (inactive) | 19.3 µM (inactive) | > 100 µM (inactive) | 24.3 µM (inactive) | 29.9 µM (inactive) | 26.9 µM (inactive) | 20 µM (inactive) | 18.9 µM (inactive) | > 100 µM (inactive) | 28.2 | > 100 µM (inactive) | 18.3 µM (inactive) | 19.3 µM (inactive) | 28.2 µM (inactive) | > 100 µM (inactive) | – | – | – | –
3 | S=c1[nH]c2ccc(Br)cc2c(=S)n1-c1ccccc1 | 32.7 µM (inactive) | 26.7 µM (inactive) | 16.4 µM (inactive) | 34.2 µM (inactive) | 28.7 µM (inactive) | 20.6 µM (inactive) | 32.5 µM (inactive) | 22.2 µM (inactive) | 17.1 µM (inactive) | 16.4 µM (inactive) | 16.1 | 10.7 µM (inactive) | 17.5 µM (inactive) | 13.7 µM (inactive) | 30.5 µM (inactive) | 24.5 µM (inactive) | 19.2 µM (inactive) | – | – | –
4 | N/C(=N\N=C\c1c[nH]c2ccccc12)Nc1ccccc1 | 0.122 µM (active) | 0.455 µM (active) | 0.176 µM (active) | 0.378 µM (active) | 1.58 µM (inactive) | 0.865 µM (active) | 3.13 µM (inactive) | 0.188 µM (active) | 0.506 µM (active) | 0.304 µM (active) | 0.318 | 0.308 µM (active) | 0.215 µM (active) | 0.594 µM (active) | 0.41 µM (active) | 1.74 µM (inactive) | 0.36 µM (active) | 0.02 µM (active) | 0.314 µM (active) | 0.0219 µM (active)
5 | Cc1c(Cl)cccc1NC(=O)C(=O)C1C(=O)NC(=O)NC1=O | > 100 µM (inactive) | > 100 µM (inactive) | > 100 µM (inactive) | > 100 µM (inactive) | > 100 µM (inactive) | > 100 µM (inactive) | > 100 µM (inactive) | > 100 µM (inactive) | > 100 µM (inactive) | > 100 µM (inactive) | > 100 | > 100 µM (inactive) | > 100 µM (inactive) | > 100 µM (inactive) | > 100 µM (inactive) | > 100 µM (inactive) | > 100 µM (inactive) | – | – | –
6 | CCOc1ccc(NC(=O)C(=O)NO)cc1 | > 100 µM (inactive) | > 100 µM (inactive) | > 100 µM (inactive) | > 100 µM (inactive) | > 100 µM (inactive) | > 100 µM (inactive) | > 100 µM (inactive) | > 100 µM (inactive) | > 100 µM (inactive) | > 100 µM (inactive) | > 100 | > 100 µM (inactive) | > 100 µM (inactive) | > 100 µM (inactive) | > 100 µM (inactive) | > 100 µM (inactive) | > 100 µM (inactive) | – | – | –
7 | BrC12c3ccccc3Sc3ccccc3C1(Br)c1ccccc12 (stereo not given) | 36.2 µM (inactive) | 27.7 µM (inactive) | 16.2 µM (inactive) | 27.3 µM (inactive) | 33.1 µM (inactive) | 27 µM (inactive) | 25.5 µM (inactive) | 28.8 µM (inactive) | 36 µM (inactive) | 22.3 µM (inactive) | 17.8 | – | 30.7 µM (inactive) | 28.8 µM (inactive) | 32.1 µM (inactive) | 16.7 µM (inactive) | 15.8 µM (inactive) | – | – | –
8 | COc1ccc(/C=C2\CCC(C)(CN(C)C)C2=O)cc1Br (stereo not given) | 19.8 µM (inactive) | 38.4 µM (inactive) | 14.8 µM (inactive) | 25.6 µM (inactive) | 18.9 µM (inactive) | 16.2 µM (inactive) | 37.7 µM (inactive) | 18.5 µM (inactive) | 18.2 µM (inactive) | 19.5 µM (inactive) | 16.9 | 28.8 µM (inactive) | 25.8 µM (inactive) | 20.8 µM (inactive) | 17 µM (inactive) | 18.9 µM (inactive) | 18.2 µM (inactive) | 24.5 µM (inactive) | 50.4 µM (inactive) | 19.1 µM (inactive)
9 | CN1CCC(CN2c3ccccc3Sc3ccccc32)CC1 | 15.3 µM (inactive) | 15.1 µM (inactive) | 7.19 µM (inactive) | – | 16.3 µM (inactive) | 16.7 µM (inactive) | 19.4 µM (inactive) | 14.1 µM (inactive) | 13.4 µM (inactive) | 14.6 µM (inactive) | 18.5 | 16.4 µM (inactive) | – | 12.9 µM (inactive) | 17.5 µM (inactive) | 15.4 µM (inactive) | 13.5 µM (inactive) | – | – | –
10 | Cc1nc(Nc2ccc([N+](=O)[O-])cc2)sc1C(=O)/C=C/c1ccc(N(C)C)cc1 | > 100 µM (inactive) | 40.7 µM (inactive) | 50.5 µM (inactive) | > 100 µM (inactive) | – | > 100 µM (inactive) | > 100 µM (inactive) | > 100 µM (inactive) | 77.3 µM (inactive) | 81.3 µM (inactive) | 44.6 | > 100 µM (inactive) | > 100 µM (inactive) | 78.3 µM (inactive) | 73.3 µM (inactive) | – | 64.7 µM (inactive) | – | – | –
11 | CCSc1c2ccccc2c(-c2nc(F)nc(F)n2)n1CCc1ccccc1 | > 100 µM (inactive) | > 100 µM (inactive) | – | – | > 100 µM (inactive) | – | > 100 µM (inactive) | > 100 µM (inactive) | > 100 µM (inactive) | – | > 100 | > 100 µM (inactive) | > 100 µM (inactive) | > 100 µM (inactive) | – | > 100 µM (inactive) | > 100 µM (inactive) | – | – | –
12 | CC(C)c1ccc2c(c1)CCC1C(C)(C)[C@@H](O)CC[C@]21C (stereo not given in full) | – | 30.6 µM (inactive) | 17.3 µM (inactive) | 19.6 µM (inactive) | 56.8 µM (inactive) | > 100 µM (inactive) | 18.8 µM (inactive) | 18.6 µM (inactive) | 31.8 µM (inactive) | – | 32.7 | 29.8 µM (inactive) | 17 µM (inactive) | 24.8 µM (inactive) | 36.4 µM (inactive) | 18.7 µM (inactive) | 15.1 µM (inactive) | – | – | –
13 | O=c1[nH]c(=O)n(C2OC(COP(=O)(O)OP(=O)(O)O)C(O)C2O)cc1F (stereo not given) | 0.171 µM (active) | 0.119 µM (active) | 4.31 µM (inactive) | 8.65 µM (inactive) | 1.23 µM (inactive) | 11.8 µM (inactive) | 7 µM (inactive) | 1.57 µM (inactive) | 0.456 µM (active) | 6.11 µM (inactive) | 0.446 | 2.08 µM (inactive) | 0.726 µM (active) | 0.538 µM (active) | 2.11 µM (inactive) | 3.13 µM (inactive) | 0.251 µM (active) | – | – | –
14 | CC(C)C1COC(c2cccc(C3=N[C@@H](C(C)C)CO3)n2)=N1 (stereo not given in full) | > 100 µM (inactive) | > 100 µM (inactive) | > 100 µM (inactive) | > 100 µM (inactive) | > 100 µM (inactive) | > 100 µM (inactive) | > 100 µM (inactive) | > 100 µM (inactive) | > 100 µM (inactive) | – | > 100 | > 100 µM (inactive) | > 100 µM (inactive) | > 100 µM (inactive) | – | > 100 µM (inactive) | > 100 µM (inactive) | – | – | –
15 | CC(=O)OC1CCCn2c1nc1c2C(=O)C(C)=C(N2CC2)C1=O (stereo not given) | 0.167 µM (active) | 0.316 µM (active) | 0.185 µM (active) | 0.301 µM (active) | 0.773 µM (active) | 0.962 µM (active) | 0.356 µM (active) | 0.535 µM (active) | 0.15 µM (active) | 0.242 µM (active) | 0.207 | 0.0923 µM (active) | 0.219 µM (active) | 0.232 µM (active) | 0.388 µM (active) | 0.318 µM (active) | 0.303 µM (active) | – | – | –

Reference: ChEMBL document CHEMBL1201862, “PubChem BioAssay data set” (2004)
